Assay results taken from patent US20160038235A1, “INGENOL MEBUTATE IN COMBINATION WITH LASER THERAPY FOR THE TREATMENT OF HYPE[…] LESIONS” (LEO LABORATORIES LIMITED, priority 2013, published 2016).

Experiment: Penetration of ingenol mebutate in static in vitro Franz cell model after fractional Er:YAG laser pre-treatment
Assay type: in vitro ADME, porcine
Set-up: Uptake: unit not given here
Details: for Uptake: 21 h
Description: Penetration of Ingenol mebutate was investigated in a static in vitro Franz cell model, using porcine skin. Prior to ingenol mebutate application, the skin was pre-treated with a fractional 2940 Er:YAG laser. Two settings were used based on pulse durations at 125 or 225 μs, and power at 1.3 or 1.7 W, delivering total energies per laser channel at 11 or 128 mJ, respectively. The settings were investigated at 1, 5 and 10% densities. The shape and depth of the micropores were evaluated in a dissecting microscope. After 21 h in the Franz cells, stratum corneum was tape stripped and liquid chromatography-mass spectrometry (LC-MS) was used to analyze IngMeb concentrations in stratum corneum, skin and receptor fluid.

Structure (SMILES): C/C=C(/C)C(=O)O[C@H]1C(C)=C[C@]23C(=O)[C@@H](C=C(CO)[C@@H](O)[C@]12O)[C@H]1[C@@H](C[C@H]3C)C1(C)C [ingenol mebutate]
- Uptake (1—No Laser, Dermis): 508
- Uptake (1—No Laser, Epidermis): 606
- Uptake (1—No Laser, Receiver): 0
- Uptake (1—No Laser, SC): 708
- Enhancement Factor (1—No Laser, Viable skin (reference)): 1
- Uptake (1—No Laser, Viable skin): 1114
- Uptake (2—Superficial 1% (approx. 50 μm micropores), Viable skin): 1340
- Uptake (2—Superficial 1%, Dermis): 843
- Uptake (2—Superficial 1%, Epidermis): 558
- Uptake (2—Superficial 1%, Receiver): 122
- Uptake (2—Superficial 1%, SC): 603
- Enhancement Factor (2—Superficial 1%, Viable skin, vs No laser): 1.20
- Uptake (3—Superficial 5%, Dermis): 1584
- Uptake (3—Superficial 5%, Epidermis): 568
- Uptake (3—Superficial 5%, Receiver): 408
- Uptake (3—Superficial 5%, SC): 135
- Uptake (3—Superficial 5%, Viable skin): 2152
- Enhancement Factor (3—Superficial 5%, Viable skin, vs No laser): 1.93
- Uptake (4—Superficial 10%, Dermis): 1801
- Uptake (4—Superficial 10%, Epidermis): 388
- Uptake (4—Superficial 10%, Receiver): 547
- Uptake (4—Superficial 10%, SC): 59
- Uptake (4—Superficial 10%, Viable skin): 2189
- Enhancement Factor (4—Superficial 10%, Viable skin, vs No laser): 1.97
- Uptake (5—Mid-Dermal-1% (approx. 500 μm micropores), Viable skin): 1510
- Uptake (5—Mid-Dermal-1%, Dermis): 1076
- Uptake (5—Mid-Dermal-1%, Epidermis): 366
- Uptake (5—Mid-Dermal-1%, Receiver): 304
- Uptake (5—Mid-Dermal-1%, SC): 369
- Enhancement Factor (5—Mid-Dermal-1%, Viable skin, vs No laser): 1.35
- Uptake (6—Mid-Dermal 5%, Dermis): 1744
- Uptake (6—Mid-Dermal 5%, Epidermis): 386
- Uptake (6—Mid-Dermal 5%, Receiver): 677
- Uptake (6—Mid-Dermal 5%, SC): 127
- Uptake (6—Mid-Dermal 5%, Viable skin): 2126
- Enhancement Factor (6—Mid-Dermal 5%, Viable skin, vs No laser): 1.91
- Uptake (7—Mid-Dermal 10%, Dermis): 1986
- Uptake (7—Mid-Dermal 10%, Epidermis): 260
- Uptake (7—Mid-Dermal 10%, Receiver): 622
- Uptake (7—Mid-Dermal 10%, SC): 9
- Uptake (7—Mid-Dermal 10%, Viable skin): 2224
- Enhancement Factor (7—Mid-Dermal 10%, Viable skin, vs No laser): 2.00
- accumulation in the epidermis, laser compared with no laser pre-treatment (10% density at 50 μm micropores, all densities at 500 μm micropores): decreased ingenol mebutate in the epidermis
- accumulation in stratum corneum (SC), laser pre-treatment compared with no laser pre-treatment (50 μm and 500 μm micropores, decreasing with increasing density): less ingenol mebutate was accumulated
- increase in ingenol mebutate in the dermis with laser pre-treatment compared with no laser pre-treatment (density dependent (1-10%)): 1.7-3.9 fold
- dermis uptake, 10% density compared with 5%, and 500 μm compared with 50 μm micropores (laser pre-treatment): no added benefit was observed
- improved uptake in the epidermis relative to uptake without use of the laser (maximum): ≤ 4 times
- delivery of ingenol mebutate to dermis, increase following laser pre-treatment compared to no laser pre-treatment (maximum increase): ≤ 4 fold
